From patent US20240217966A1, “PHARMACEUTICAL COMPOSITION CONTAINING GLP-1 RECEPTOR AGONIST HAVING FUSED RING” (Shionogi & Co., Ltd., priority 2021, published 2024)

Biological target: T1, Human GLP-1 receptor (Homo sapiens, UniProt P43220)
T1 construct: expressed in transfected cells
Assay: Measurement of GLP-1 receptor agonist activity (cAMP assay)
Assay type: cell-based
Conditions: cAMP increase in GLP-1 R/CHO-K1 cells, 2 nM human GLP-1 (7-36) = 100%, DMSO only = 0%; for Emax: CHO-K1, maximum effect, read-out: Emax
Procedure, shortened: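 Agonism measured as cAMP accumulation by time-resolved FRET immunoassay in CHO-K1 cells stably expressing human GLP-1 receptor. Cells treated for 1 h at 37 °C with compound and forskolin (400 μM stock), in buffer containing the PDE inhibitors IBMX (0.1 mM) and RO20-1724 (0.2 mM).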

T1 sequence (P43220 24-463): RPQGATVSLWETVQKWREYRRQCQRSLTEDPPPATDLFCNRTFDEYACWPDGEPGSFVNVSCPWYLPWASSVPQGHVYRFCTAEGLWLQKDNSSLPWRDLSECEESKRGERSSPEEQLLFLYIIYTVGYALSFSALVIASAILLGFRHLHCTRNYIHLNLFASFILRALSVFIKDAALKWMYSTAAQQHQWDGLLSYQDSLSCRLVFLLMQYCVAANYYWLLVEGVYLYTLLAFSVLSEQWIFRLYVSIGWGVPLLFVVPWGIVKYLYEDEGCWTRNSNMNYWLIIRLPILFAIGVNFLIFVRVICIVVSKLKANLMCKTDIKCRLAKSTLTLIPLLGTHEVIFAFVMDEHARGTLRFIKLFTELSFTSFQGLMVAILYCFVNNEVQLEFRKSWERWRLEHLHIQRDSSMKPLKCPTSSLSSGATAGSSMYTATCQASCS

Compound	Emax [%]	EC50 [nM]
C[C@H]1c2cc(OCc3ccc(Cl)cc3F)c(C(F)F)cc2CCN1Cc1nc2ccc(C(=O)O)cc2n1C[C@@H]1CCO1 [Compound I-261]	105	1.27
COc1ccc(COc2nc3c(cc2C(F)(F)F)CCN(Cc2nc4ccc(C(=O)O)cc4n2C[C@@H]2CCO2)C3)cc1 [Compound I-262]	109	4.47
O=C(O)c1ccc2nc(CN3CCc4cc(C(F)(F)F)c(OCc5ccc(Cl)cn5)nc4C3)n(C[C@@H]3CCO3)c2c1 [Compound I-263]	105	8.8
O=C(O)c1ccc2nc(CN3CCc4cc(C(F)(F)F)c(OCc5ccc(Cl)cc5)nc4C3)n(C[C@@H]3CCO3)c2c1 [Compound I-264]	121	2.36
Cc1ccc(COc2nc3c(cc2C(F)(F)F)CCN(Cc2nc4ccc(C(=O)O)cc4n2C[C@@H]2CCO2)C3)cc1 [Compound I-265]	100	3.18
O=C(O)c1ccc2nc(CN3CCc4cc(C(F)(F)F)c(OCc5ccc(C6CC6)cc5)nc4C3)n(C[C@@H]3CCO3)c2c1 [Compound I-266]	111	4.04
COc1cc(Cl)ccc1COc1nc2c(cc1C(F)(F)F)CCN(Cc1nc3ccc(C(=O)O)cc3n1C[C@@H]1CCO1)C2 [Compound I-267]	112	0.861
O=C(O)c1ccc2nc(CN3CCc4cc(C(F)(F)F)c(OCc5ccc(F)cc5F)nc4C3)n(C[C@@H]3CCO3)c2c1 [Compound I-268]	108	1.97
O=C(O)c1ccc2nc(CN3CCc4cc(C(F)(F)F)c(OCc5ccc(Cl)cc5Cl)nc4C3)n(C[C@@H]3CCO3)c2c1 [Compound I-269]	109	1.16
O=C(O)c1ccc2nc(CN3CCc4cc(C(F)(F)F)c(OCc5ccc(OC(F)F)cc5F)nc4C3)n(C[C@@H]3CCO3)c2c1 [Compound I-270]	116	0.69
N#Cc1ccc(COc2nc3c(cc2C(F)(F)F)CCN(Cc2nc4ccc(C(=O)O)cc4n2C[C@@H]2CCO2)C3)c(F)c1 [Compound I-271]	118	1.66
O=C(O)c1ccc2nc(CN3CCc4cc(C(F)(F)F)c(OCc5ccc(F)cc5)nc4C3)n(C[C@@H]3CCO3)c2c1 [Compound I-272]	107	3.94
C[C@H]1c2nc(OCc3ccc(Cl)cc3F)c(C(F)(F)F)cc2CCN1Cc1nc2c(F)cc(C(=O)O)cc2n1C[C@@H]1CCO1 [Compound I-273]	121	0.0301
COc1cc(C(=O)O)cc2c1nc(CN1CCc3cc(C(F)(F)F)c(OCc4ccc(Cl)cc4F)nc3[C@@H]1C)n2C[C@@H]1CCO1 [Compound I-274]	120	0.0134
C[C@H]1c2nc(OCc3ccc(Cl)cc3F)c(C(F)(F)F)cc2CCN1Cc1nc2ccc(C(=O)O)nc2n1C[C@@H]1CCO1 [Compound I-275]	107	0.246
C[C@H]1c2nc(OCc3ccc(Cl)cc3F)c(Cl)cc2CCN1Cc1nc2ccc(C(=O)O)cc2n1C[C@@H]1CCO1 [Compound I-276]	114	0.0521
O=C(O)c1ccc2nc(CN3CCc4cc(C(F)(F)F)c(OCc5ccccc5Cl)nc4C3)n(C[C@@H]3CCO3)c2c1 [Compound I-277]	96.3	3.2
O=C(O)c1ccc2nc(CN3CCc4cc(C(F)(F)F)c(OCc5cc(F)c(Cl)cc5F)nc4C3)n(C[C@@H]3CCO3)c2c1 [Compound I-278]	109	0.806
O=C(O)c1ccc2nc(CN3CCc4cc(C(F)(F)F)c(OCc5c(F)cc(Cl)cc5F)nc4C3)n(C[C@@H]3CCO3)c2c1 [Compound I-279]	110	

Compound	Emax [%]	EC50 [nM]
O=C(O)c1ccc2nc(CN3CCc4cc(C(F)(F)F)c(OCc5c(F)cc(F)cc5F)nc4C3)n(C[C@@H]3CCO3)c2c1 [Compound I-280]	105	0.79
COc1cc(C(=O)O)cc2c1nc(CN1CCc3cc(C(F)(F)F)c(OCc4ccccc4Cl)nc3[C@@H]1C)n2C[C@@H]1CCO1 [Compound I-281]	120	0.00739
COc1cc(C(=O)O)cc2c1nc(CN1CCc3cc(C(F)(F)F)c(OCc4ccc(F)cc4F)nc3[C@@H]1C)n2C[C@@H]1CCO1 [Compound I-282]	114	0.00918
COc1cc(C(=O)O)cc2c1nc(CN1CCc3cc(C(F)(F)F)c(OCc4ccc(OC(F)F)cc4F)nc3[C@@H]1C)n2C[C@@H]1CCO1 [Compound I-283]	118	0.0283
COc1cc(C(=O)O)cc2c1nc(CN1CCc3cc(C(F)(F)F)c(OCc4ccc(F)cc4)nc3[C@@H]1C)n2C[C@@H]1CCO1 [Compound I-284]	119	0.016
COc1cc(C(=O)O)cc2c1nc(CN1CCc3cc(C(F)(F)F)c(OCc4c(F)cc(F)cc4F)nc3[C@@H]1C)n2C[C@@H]1CCO1 [Compound I-285]	130	0.00862
COc1ccc(COc2nc3c(cc2C(F)(F)F)CCN(Cc2nc4ccc(C(=O)O)nc4n2C[C@@H]2CCO2)[C@H]3C)cc1 [Compound I-286]	115	0.444
C[C@H]1c2nc(OCc3ccccc3Cl)c(C(F)(F)F)cc2CCN1Cc1nc2ccc(C(=O)O)nc2n1C[C@@H]1CCO1 [Compound I-287]	116	0.103
C[C@H]1c2nc(OCc3ccc(F)cc3F)c(C(F)(F)F)cc2CCN1Cc1nc2ccc(C(=O)O)nc2n1C[C@@H]1CCO1 [Compound I-288]	115	0.171
C[C@H]1c2nc(OCc3ccc(OC(F)F)cc3F)c(C(F)(F)F)cc2CCN1Cc1nc2ccc(C(=O)O)nc2n1C[C@@H]1CCO1 [Compound I-289]	117	0.311
C[C@H]1c2nc(OCc3ccc(F)cc3)c(C(F)(F)F)cc2CCN1Cc1nc2ccc(C(=O)O)nc2n1C[C@@H]1CCO1 [Compound I-290]	118	0.266
C[C@H]1c2nc(OCc3c(F)cc(Cl)cc3F)c(C(F)(F)F)cc2CCN1Cc1nc2ccc(C(=O)O)nc2n1C[C@@H]1CCO1 [Compound I-291]	120	0.0864
C[C@H]1c2nc(OCc3c(F)cc(F)cc3F)c(C(F)(F)F)cc2CCN1Cc1nc2ccc(C(=O)O)nc2n1C[C@@H]1CCO1 [Compound I-292]	121	0.146
O=C(O)c1ccc2nc(CN3CCc4cc(C(F)(F)F)c(OCc5ccc(Cl)cc5)nc4C3)n(C[C@@H]3CCO3)c2c1F [Compound I-294]	97.7	
Cc1ccc(COc2nc3c(cc2C(F)(F)F)CCN(Cc2nc4ccc(C(=O)O)c(F)c4n2C[C@@H]2CCO2)C3)cc1 [Compound I-295]	108	1.29
COc1cc(Cl)ccc1COc1nc2c(cc1C(F)(F)F)CCN(Cc1nc3ccc(C(=O)O)c(F)c3n1C[C@@H]1CCO1)C2 [Compound I-296]	117	
O=C(O)c1ccc2nc(CN3CCc4cc(C(F)(F)F)c(OCc5ccc(F)cc5F)nc4C3)n(C[C@@H]3CCO3)c2c1F [Compound I-297]	102	0.818
O=C(O)c1ccc2nc(CN3CCc4cc(C(F)(F)F)c(OCc5ccc(Cl)cc5Cl)nc4C3)n(C[C@@H]3CCO3)c2c1F [Compound I-298]	109	0.317
O=C(O)c1ccc2nc(CN3CCc4cc(C(F)(F)F)c(OCc5cc(F)c(Cl)cc5F)nc4C3)n(C[C@@H]3CCO3)c2c1F [Compound I-299]	115	0.42
